In brackets after ≈: the same amount, converted by molar mass. Like-named read-outs stand apart in the source and are kept apart here. Where no end group is shown, it is not given here.
Tests used:
[1] = system: Escherichia coli ESBL (CUN E20)
[2] = system: Pseudomonas aeruginosa biofilm; experiment: Inactivation of biofilm from Pseudomonas aeruginosa with GFP-labelled bacteria; assay type: cell-based; conditions: short-time treatment (1 h), FIG. 2
Experimental: FIG. 2: Inactivation of a biofilm from Pseudomonas aeruginosa with GFP-labelled bacteria (GFP: Green-Fluorescent Protein). Living bacteria: white, inactivated bacteria: dark.
The micrographics shown that only a small fraction of the surface was covered by live bacteria forming a biofilm after 1 h (B) compared with the untreated one (A).

[3] = system: Pseudomonas aeruginosa PS4; experiment: CDC Biofilm Reactor, inhibition of biofilm formation; assay type: cell-based; conditions: with and without levofloxacin, 24 hours treatment, FIG. 8
Experimental: The data shown in FIG. 8 were obtained in experiments carried out using the Center for Disease Control (CDC) Biofilm Reactor (CBR). In this case, clinical strain Pseudomonas aeruginosa PS4 was incubated in TSB under continuous shaking for 24 hours, followed by additional 24 hours growth with a flow of diluted TSB. Samples received treatments during another 24 hours dissolved at Phosphate Buffer at 37° C. Biofilms were scraped and serially diluted prior to plating and counting. For confocal microscopy, Biofilms were stained using Live/Death BacLight (Life technologies, Carlsbad, California, USA).

[4] = system: TLR2/6-activated keratinocytes; experiment: FSL-1 (TLR2/6)-activated keratinocytes: IL-8 ELISA, Western Blot, real-time PCR; assay type: cell-based, human; conditions: FSL-1 stimulation, 10:1 weight ratio
Experimental: Thus, the effect of Pep19-2.5 and Pep19-4LF on the toxin (pathogenicity factor) FSL-1 (fibroblast-stimulating lipopeptide), a TLR-2/6 activating compound, was checked.
(§1) The potential of Peptide 19-2.5 and the structurally related compound Peptide 19-4LF has been investigated for their therapeutic application in bacterial skin infections. Primary human keratinocytes responded to TLR2 (FSL-1) but not TLR4 (LPS) activation by increased IL-8 production which was determined with ELISA. […] To detect phosphorylation of the intracellular proteins Western Blot was performed. Gene expression was evaluated by quantitative real-time PCR. […] In addition to acute inflammation, bacterial infections often result in impaired wound healing. Since re-epithelialization is a critical step in wound repair, we tested whether Peptide 19-2.5 affects keratinocyte migration.

[5] = system: open wound with wound infections (Staphylococcus aureus, Parvimonas micra, β-hemolysing Streptococcus, Pseudomonas aeruginosa); experiment: Healing attempt, infected open wound of a patient, topical salve; assay type: in vivo; conditions: for Effect on wound: topical
Text: A patient had—due to a cured tumor in the back—an open wound (see picture at t=0). […] Therefore, a conservative wound treatment was initiated. The wound's localization required the involvement of an ambulant nursing service who took over the daily care. Nevertheless, in sporadic intervals, wound infections occurred which inhibited the healing process. […] Over 6 years, all therapeutical approaches with different antibiotics and topically applied salve formulations failed. In November 2014 the patient was informed about the possibility of a, healing attempt′, to which they agreed. […] This therapeutically effect can be explained only from the use of the Aspidasept® salve, since all other parameters were not changed. The wound is now completely closed.

[6] = system: M. tuberculosis-induced TNF formation of human peripheral blood mononuclear cells; experiment: M. tuberculosis supernatant-induced TNFα formation in human mononuclear cells (ELISA); assay type: cell-based; conditions: for Inhibition of M. tuberculosis-induced TNF formation (in words): FIG. 5
[7] = system: monocyte-derived dendritic cells (MoDCs); experiment: LPS-stimulated monocyte-derived dendritic cells: maturation, migration, IL-6; assay type: cell-based
Text: In monocyte-derived dendritic cells (MoDCs), Pep19-2.5 inhibited LPS-mediated upregulation of the maturation marker CD83 and the co-stimulatory molecule CD80 at a peptide:LPS weight ratio of 1000:1.
as §1

keratinocyte migration = experiment: Scratch assay, keratinocyte migration; assay type: cell-based
Experimental: as §1

| Compound | MIC ([1]; individual agents, Mueller-Hinton medium) | Inactivation of biofilm bacteria [2] | Inhibition of biofilm formation [3] | IL-8 release / IL-8 inducing activity of FSL-1 [4] | MIC ([1]; ESBL (CUN E20)) | Effect on wound ([5]; 0.1% in salve (DAC-base cream)) | Reduction of the diameter of the wound ([5]; 1% in salve, after 2 months) | Wound healing ([5]; 1% in salve, after 6 months) | Effect on wound ([5]; 1% in salve) | Inhibition of TNFα formation ([6]; 10 μg/ml peptide) | Inhibition of M. tuberculosis-induced TNF formation (in words) [6] | Inhibition of M. tuberculosis-induced TNF formation (in words) ([6]; listed as Pep19-2.5) | LPS-induced migration of MoDCs and CCR7 gene expression ([7]; FIG. 6) | LPS-mediated upregulation of maturation marker CD83 and co-stimulatory molecule CD80 ([7]; peptide:LPS weight ratio of 1000:1) | Concentration promoting cell migration and accelerating artificial wound closure (as low as) (keratinocyte migration) | Potency in promoting cell migration relative to TGF-β (keratinocyte migration) |
| --- | --- | --- | --- | --- | --- | --- | --- | --- | --- | --- | --- | --- | --- | --- | --- | --- |
| CO/N=C(\C(=O)N[C@@H]1C(=O)N2C(C(=O)O)=C(CSc3nc(=O)c(O)nn3C)CS[C@H]12)c1csc(N)n1 [Ceftriaxon, Ceftriaxone, reference compound] | 16 µg/mL (≈ 28.9 µM) |  |  |  |  |  |  |  |  |  |  |  |  |  |  |  |
| GKKYRRFRWKFKGKLFLFG [Peptide 19-4LF, GKKYRRFRWKFKGKLFLFG] |  | most bacteria are inactivated | Inhibition of biofilm formation | reduce IL-8 release | 16 µg/mL |  |  |  |  |  |  |  |  |  |  |  |
| N=C(N)NCCC[C@H](NC(=O)[C@H](Cc1ccc(O)cc1)NC(=O)[C@H](CCCCN)NC(=O)[C@H](CCCCN)NC(=O)[C@H](CS)NC(=O)CN)C(=O)N[C@@H](CCCNC(=N)N)C(=O)N[C@@H](Cc1ccccc1)C(=O)N[C@@H](CCCNC(=N)N)C(=O)N[C@@H](Cc1c[nH]c2ccccc12)C(=O)N[C@@H](CCCCN)C(=O)N[C@@H](Cc1ccccc1)C(=O)N[C@@H](CCCCN)C(=O)NCC(=O)N[C@@H](CCCCN)C(=O)N[C@@H](Cc1ccccc1)C(=O)N[C@@H](Cc1c[nH]c2ccccc12)C(=O)N[C@@H](Cc1ccccc1)C(=O)N[C@@H](Cc1c[nH]c2ccccc12)C(=O)NCC(=O)O [Peptide 19-2.5] |  |  |  | reduce IL-8 release | 128 µg/mL (≈ 47.2 µM) | no effect | 50% | completely healed | significant effect | more than 50% | Does dependent inhibition | strongest anti-TNFα activity | completely blocked | inhibited | 1 ng/mL | equipotent to TGF-β |

Source: patent US20230293628A1, “MEANS AND METHODS FOR TREATING BACTERIAL INFECTIONS” (priority 2016, published 2023)
